Experimental findings from US20220380378A1 (ESSA Pharma, Inc., priority 2021, published 2022) are described below.

Where only a bound is given, the exact number is not on record here.

The test concerns the target T1, androgen receptor (AR) (Homo sapiens, UniProt P10275, T878A).
T1 sequence (P10275 1-920 T878A): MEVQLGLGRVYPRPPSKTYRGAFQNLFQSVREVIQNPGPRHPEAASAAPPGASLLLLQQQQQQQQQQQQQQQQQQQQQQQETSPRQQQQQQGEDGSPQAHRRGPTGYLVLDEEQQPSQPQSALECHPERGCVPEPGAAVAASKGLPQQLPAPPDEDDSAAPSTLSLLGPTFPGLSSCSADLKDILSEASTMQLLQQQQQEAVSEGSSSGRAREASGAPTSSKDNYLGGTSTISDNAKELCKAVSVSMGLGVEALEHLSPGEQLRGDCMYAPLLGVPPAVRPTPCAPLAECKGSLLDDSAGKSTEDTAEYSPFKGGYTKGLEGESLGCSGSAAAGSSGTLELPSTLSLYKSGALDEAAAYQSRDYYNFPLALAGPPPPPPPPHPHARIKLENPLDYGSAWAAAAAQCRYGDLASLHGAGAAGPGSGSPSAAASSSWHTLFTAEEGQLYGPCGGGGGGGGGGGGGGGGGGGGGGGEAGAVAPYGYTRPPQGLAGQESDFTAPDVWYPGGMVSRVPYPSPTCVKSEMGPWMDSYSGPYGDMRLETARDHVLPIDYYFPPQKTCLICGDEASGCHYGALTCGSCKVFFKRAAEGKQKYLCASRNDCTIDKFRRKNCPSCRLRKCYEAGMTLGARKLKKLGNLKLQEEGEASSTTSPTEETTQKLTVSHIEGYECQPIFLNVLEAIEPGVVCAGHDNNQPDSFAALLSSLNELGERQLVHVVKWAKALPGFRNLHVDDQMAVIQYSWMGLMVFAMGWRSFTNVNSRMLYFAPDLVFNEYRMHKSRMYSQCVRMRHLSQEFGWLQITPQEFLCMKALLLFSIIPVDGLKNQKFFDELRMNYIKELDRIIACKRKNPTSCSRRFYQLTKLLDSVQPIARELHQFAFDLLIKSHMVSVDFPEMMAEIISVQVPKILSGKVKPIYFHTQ
Kind of test: Androgen-induced PSA (6.1 kb)-luciferase reporter assay in LNCaP cells (R1881 1 nM). As to conditions: 24 h, read-out: PSA-Luc IC50 Range. It is filed as cell-based. The arrangement: endogenous in cells; host or cells: LNCaP. The procedure:
The PSA (6.1 kb)-luciferase reporter contains functional AREs (androgen response elements) to which AR binds in response to androgen to induce luciferase activity. LNCaP cells were transiently transfected with the PSA (6.1 kb)-luciferase reporter for 24 h, and then pretreated with vehicle (DMSO) or indicated concentration of representative compounds for one hour prior to the addition of synthetic androgen, R1881 (1 nM). After 24 h of incubation with R1881, the cells were harvested, and relative luciferase activities were determined (FIG. 1). To determine the IC50, treatments were normalized to vehicle control activity induced by R1881 (Table 2).
Luciferase Assay: Cells were lysed using Passive Lysis Buffer (Promega) and then collected into V-bottom 96-well tissue culture plates. Lysates were centrifuged at 4° C. for 5 minutes at 3000 rpm. To measure luminescence of LNCaP cell lysates the Firefly Luciferase Assay System (Promega) was employed, according to manufacturer's protocol. Relative luminescence units (RLU) in cell lysates were detected for 10 seconds using Promega GloMax-Multi Detection Luminometer (Promega). Values were normalized to protein content. GraphPad Prism graphing software was used to calculate IC50 values.
Statistical analyses were performed using GraphPad Prism (Version 6.01 for Windows; La Jolla, Calif., USA). Comparisons between treatment and control groups were compared using Two-Way ANOVA with post-hoc Dunnett's and Tukey's tests. Differences were considered statistically significant at P values less than 0.05.
Regarding `CS(=O)(=O)Nc1nccc(COc2ccc3c(c2)nnn3-c2cc(Cl)c(OCCCl)c(C#N)c2)n1` [Compound A40], the IC50 (usually the concentration that gives 50% inhibition) was more than 2 µM. For `CC(C)(c1ccc(OCC23CCC(NS(C)(=O)=O)(CC2)C3)cc1)c1cc(Cl)c(OCCCl)c(C#N)c1` [Compound A272] the value was 0.5 to 2 µM; for `Cn1nc(-c2cc(Cl)c(OCCCl)c(C#N)c2)c2ccc(OCc3ccnc(NS(C)(=O)=O)n3)cc21` [Compound A77], more than 2 µM; for `CC(C)(c1ccc(-c2ccc3c(NS(C)(=O)=O)ncnc3c2)cc1)c1cc(Cl)c(OCCCl)c(C#N)c1` [Compound A197], more than 2 µM. The value for `CS(=O)(=O)NCC1CN(Cc2ccc3c(ccn3-c3cc(Cl)c(OCCCl)c(C#N)c3)c2)CCO1` (centres unmarked) [Compound A170] was more than 2 µM. For `CC(C)(c1ccc(-c2ccc3c(c2)OCCN3S(C)(=O)=O)cc1)c1cc(Cl)c(OCCCl)c(C#N)c1` [Compound A228] the value was more than 2 µM; for `CS(=O)(=O)Nc1nccc(COc2ccc3c(ccn3-c3cc(Cl)c(OC=C(Cl)Cl)c(C#N)c3)c2)n1` [Compound A128], 0.5 to 2 µM.

Turning to `CC(C)(c1ccc(OCc2cncnc2N)cc1)c1cc(Cl)c(OCCCl)c(C#N)c1` [Compound A94], the IC50 lay in the range of 0.5 to 2 µM. In the case of `CC(C)(c1ccc(OCC2CN(S(C)(=O)=O)C2)cc1)c1cc(Cl)c(OCCCl)c(C#N)c1` [Compound A151], the IC50 was in the range of 0.5 to 2 µM. As for `CS(=O)(=O)N1CCC(Oc2ccc3c(ccn3-c3cc(Cl)c(OCCCl)c(C#N)c3)c2)CC1` [Compound A200], the IC50 was in the range of 0.5 to 2 µM. For `CC(C)(c1ccc(OCc2ccnc(NS(C)(=O)=O)n2)cc1)c1cnc(N2CCCCC2)c(Cl)c1` [Compound A105] the value was more than 2 µM; for `CC(CO)(c1ccc(OCc2ccnc(NS(C)(=O)=O)n2)cc1)c1cc(Cl)c(OCCCl)c(C#N)c1` (centres unmarked) [Compound A89], more than 2 µM. For `CC(C)(c1ccc(-c2cnc3nc(NS(C)(=O)=O)cnc3c2)cc1)c1cc(Cl)c(OCCCl)c(C#N)c1` [Compound A195] the value was more than 2 µM; for `CS(=O)(=O)N[C@@H]1CC[C@H](Oc2ccc3c(ccn3-c3cc(Cl)c(OCCCl)c(C#N)c3)c2)C1` [Compound A233], 0.5 to 2 µM. The value for `CC(C)(c1ccc(-c2cnc3c(NS(C)(=O)=O)nccc3n2)cc1)c1cc(Cl)c(OCCCl)c(C#N)c1` [Compound A280] was 0.5 to 2 µM; that for `CC(C)(c1ccc(-c2ccc3sc(NS(C)(=O)=O)nc3c2)cc1)c1cc(Cl)c(OCCCl)c(C#N)c1` [Compound A275] was 0.5 to 2 µM. Regarding `CC(C)(c1ccc(-c2ccc3c(NS(C)(=O)=O)nccc3n2)cc1)c1cc(Cl)c(OCCCl)c(C#N)c1` [Compound A278], the IC50 lay in the range of 0.5 to 2 µM. The value for `CS(=O)(=O)NC12CC(COc3ccc4c(ccn4-c4cc(Cl)c(OCC(F)(F)F)c(C#N)c4)c3)(C1)C2` [Compound A167] was 0.5 to 2 µM; that for `CS(=O)(=O)CCOc1c(Cl)cc(-n2ccc3cc(OCc4ccnc(NS(C)(=O)=O)n4)ccc32)cc1C#N` [Compound A72] was more than 2 µM.

Regarding `CC(C)(c1ccc(-c2cnc3oc(NS(C)(=O)=O)nc3c2)cc1)c1cc(Cl)c(OCCCl)c(C#N)c1` [Compound A256], the IC50 was more than 2 µM. The value for `CS(=O)(=O)Nc1cnn(CCc2ccc3c(ccn3-c3cc(Cl)c(OCCCl)c(C#N)c3)c2)c1` [Compound A84] was more than 2 µM; that for `CS(=O)(=O)NC[C@H]1CC[C@H](COc2ccc3c(ccn3-c3cc(Cl)c(OCCCl)c(C#N)c3)c2)CC1` [Compound A209] was 0.5 to 2 µM; that for `CC1CN(c2c(F)cc(C(C)(C)c3ccc(OCc4ccnc(NS(C)(=O)=O)n4)cc3)cc2C#N)C1` [Compound A252] was 0.5 to 2 µM.

For the compound `CS(=O)(=O)Nc1nccc(COc2ccc3c(ccn3-c3cc(Cl)c(OC4CCC4)c(C#N)c3)c2)n1` [Compound A189], the IC50 lay in the range of 0.5 to 2 µM.

In the case of `CS(=O)(=O)Nc1ncc2c(n1)CCN(Cc1ccc3c(ccn3-c3cc(Cl)c(OCCCl)c(C#N)c3)c1)C2` [Compound A154], the IC50 was more than 2 µM. The value for `CS(=O)(=O)NCc1ccc(-c2ccc3c(ccn3-c3cc(Cl)c(OCCCl)c(C#N)c3)c2)cc1` [Compound A164] was more than 2 µM; that for `CS(=O)(=O)Nc1ncc(Cn2cc3ccc(-c4cc(Cl)c(OCCCl)c(C#N)c4)cc3n2)cn1` [Compound A160] was more than 2 µM; that for `CC(C)(c1ccc(-c2cnc3c(c2)CCCC3NS(C)(=O)=O)cc1)c1cc(Cl)c(OCCCl)c(C#N)c1` (centres unmarked) [Compound A216] was more than 2 µM.

On to `CS(=O)(=O)NC12CC(NCc3ccc4c(ccn4-c4cc(Cl)c(OCCCl)c(C#N)c4)c3)(C1)C2` [Compound A145], for which the IC50 was 0.5 to 2 µM. The value for `CS(=O)(=O)N1CCN(CCOc2ccc3c(ccn3-c3cc(Cl)c(OCCCl)c(C#N)c3)c2)CC1` [Compound A206] was 0.5 to 2 µM; that for `CS(=O)(=O)N1CCC[C@@H]1COc1ccc2c(ccn2-c2cc(Cl)c(OCCCl)c(C#N)c2)c1` [Compound A224] was 0.5 to 2 µM. The value for `CS(=O)(=O)N1CC2(CCN(Cc3ccc4c(ccn4-c4cc(Cl)c(OCCCl)c(C#N)c4)c3)CC2)C1` [Compound A235] was more than 2 µM; that for `CC1(C)CN(c2c(F)cc(C(C)(C)c3ccc(OCc4ccnc(NS(C)(=O)=O)n4)cc3)cc2C#N)C1` [Compound A260] was 0.5 to 2 µM; that for `CS(=O)(=O)Nc1nccc(COc2ccc3c(ccn3-c3cc(Cl)c(OCC(F)(F)F)c(C#N)c3)c2)n1` [Compound A70] was 0.5 to 2 µM. The value for `CS(=O)(=O)Nc1ncc2c(n1)CN(Cc1ccc3c(ccn3-c3cc(Cl)c(OCCCl)c(C#N)c3)c1)CC2` [Compound A153] was more than 2 µM; that for `CS(=O)(=O)Nc1nccc(COc2ccc3c(-c4cc(Cl)c(OCCCl)c(C#N)c4)c[nH]c3c2)n1` [Compound A218] was more than 2 µM; that for `CCCOc1ncc(C(C)(C)c2ccc(OCc3ccnc(NS(C)(=O)=O)n3)cc2)cc1Cl` [Compound A104] was more than 2 µM.

For `CC(C)(c1ccc(OCc2ccnc(NS(C)(=O)=O)n2)cc1)c1cnc(N2CC3(CCC3)C2)c(C#N)c1` [Compound A166], the IC50 is more than 2 µM. For `CS(=O)(=O)N1CC2(CC(Oc3ccc4c(ccn4-c4cc(Cl)c(OCCCl)c(C#N)c4)c3)C2)C1` [Compound A163] the value was 0.5 to 2 µM; for `CS(=O)(=O)NCC1CCN(Cc2ccc3c(ccn3-c3cc(Cl)c(OCCCl)c(C#N)c3)c2)CC1` [Compound A236], more than 2 µM. For `CS(=O)(=O)Nc1nccc(COc2ccc3c(c2)C(c2cc(Cl)c(OCCCl)c(C#N)c2)CC3)n1` (centres unmarked) [Compound A31, N-(4-(((3-(3-chloro-4-(2-chloroethoxy)-5-cyanophenyl)-2,3-dihydro-1H-inden-5-yl)oxy)methyl)pyrimidin-2-yl)methanesulfonamide] the value was more than 2 µM; for `CC(C)(c1ccc(OCc2ccnc(NS(C)(=O)=O)n2)cc1)c1cc(F)c(N2CCC2)c(C#N)c1` [Compound A251], 0.5 to 2 µM. On to `CC(C)(c1ccc(-c2cnc3nc(NS(C)(=O)=O)cnc3c2)cc1)c1cc(Cl)c(OCCCl)c(C#N)c1` [Compound A219], for which the IC50 was in the range of 0.5 to 2 µM. For `CC(C)COc1c(Cl)cc(-n2ccc3cc(OCc4ccnc(NS(C)(=O)=O)n4)ccc32)cc1C#N` [Compound A71] the value was more than 2 µM; for `CC(C)(c1ccc(OCc2ccnc(NS(C)(=O)=O)n2)cc1)c1cc(Cl)c(NCCCl)c(C#N)c1` [Compound A66], 0.5 to 2 µM. Take `CC(C)(c1ccc(OCC23CC(CNS(C)(=O)=O)(C2)C3)cc1)c1cc(Cl)c(OCCCl)c(C#N)c1` [Compound A277]: the IC50 is less than 0.5 µM. The value for `CC(C)(c1ccc(-c2ccc3nc(NS(C)(=O)=O)nc(N4CCOCC4)c3c2)cc1)c1cc(Cl)c(OCCCl)c(C#N)c1` [Compound A196] was 0.5 to 2 µM.
